Measured values as given in BigSolDB 2.1.

OC[C@@H](O)CN1CCN(c2ccccc2)CC1
solubility (mole fraction)
Conditions | 283.1 K | 288.1 K | 293.1 K | 298.1 K | 303.1 K | 308.1 K | 313.1 K | 318.1 K | 323.1 K
in ethyl acetate | 0.000375 | 0.000529 | 0.000655 | 0.000809 | 0.00104 | 0.00132 | 0.00172 | 0.00229 | 0.00299
in isobutanol | 0.000871 | 0.00116 | 0.00147 | 0.00194 | 0.00245 | 0.00311 | 0.00397 | 0.0052 | 0.00686
in isopentanol | 0.000649 | 0.000914 | 0.00126 | 0.00165 | 0.00209 | 0.00274 | 0.00358 | 0.00472 | 0.00611
in isopropanol | 0.000146 | 0.000195 | 0.000245 | 0.000302 | 0.000371 | 0.000462 | 0.00057 | 0.000705 | 0.000852
in isopropyl acetate | 0.000293 | 0.000371 | 0.000484 | 0.000609 | 0.000798 | 0.00102 | 0.00132 | 0.00172 | 0.00223
in n-butanol | 0.000527 | 0.00072 | 0.000956 | 0.00131 | 0.00175 | 0.00239 | 0.00318 | 0.00424 | 0.00579
in n-butyl acetate | 0.00032 | 0.000417 | 0.000551 | 0.000714 | 0.000937 | 0.00122 | 0.00156 | 0.00207 | 0.00266
in n-heptanol | 0.000771 | 0.00104 | 0.00135 | 0.0018 | 0.0023 | 0.00297 | 0.00381 | 0.00492 | 0.00628
in n-hexanol | 0.000816 | 0.00108 | 0.00139 | 0.00181 | 0.00235 | 0.00304 | 0.00393 | 0.00503 | 0.00651
in n-pentanol | 0.000634 | 0.000945 | 0.00128 | 0.00163 | 0.00217 | 0.00285 | 0.00372 | 0.00493 | 0.00646
in n-pentyl acetate | 0.000316 | 0.000391 | 0.000525 | 0.000678 | 0.000888 | 0.00114 | 0.0015 | 0.00194 | 0.0025
in n-propanol | 0.000721 | 0.000943 | 0.0012 | 0.00157 | 0.00207 | 0.00277 | 0.00369 | 0.00501 | 0.00656
in n-propyl acetate | 0.000351 | 0.000469 | 0.000613 | 0.000803 | 0.00103 | 0.00132 | 0.00173 | 0.00222 | 0.00293
